Source: PMC7486443, “Generation of Phenothiazine with Potent Anti-TLK1 Activity for Prostate Cancer Therapy” (iScience, 2020)

Columns and labels:
Test in all cases: biochemical
Parameters in all cases: DiscoverX KINOMEscan scanMAX competition binding panel, single concentration, percent of control; remaining binding: dose or concentration left out as unconfirmed
Details in all cases: KINOMEscan binding, percent of control; read-out: Table S4_SCANMAX REPORT - related to Fig. 1 / Percent Control
PIM2 = PIM2 (Homo sapiens, UniProt Q9P1W9)
[1] = biological target: T1, RPS6KA5(Kin.Dom.2-C-terminal) (Homo sapiens, UniProt O75582)
T1 construct: Kin.Dom.2-C-terminal

AAK1 = AAK1 (Homo sapiens, UniProt Q2M2I8)
MAP3K2 = MAP3K2 (Homo sapiens, UniProt Q9Y2U5)
[2] = biological target: EGFR(L747-E749del, A750P) (Homo sapiens, UniProt P00533, A750P/DEL747-749)
EPHA8 = EPHA8 (Homo sapiens, UniProt P29322)
BRSK1 = BRSK1 (Homo sapiens, UniProt Q8TDC3)
NIK = biological target: T2, NIK (Homo sapiens, UniProt Q99558)
T2 construct: gene MAP3K14

JNK3 = biological target: T3, JNK3 (Homo sapiens, UniProt P53779)
T3 construct: gene MAPK10

IRAK1 = IRAK1 (Homo sapiens, UniProt P51617)
SGK = biological target: T4, SGK (Homo sapiens, UniProt O00141)
T4 construct: gene SGK1

PIK3CA(I800L) = PIK3CA(I800L) (Homo sapiens, UniProt P42336, I800L)
CAMK2G = CAMK2G (Homo sapiens, UniProt Q13555)
RIPK4 = RIPK4 (Homo sapiens, UniProt P57078)
KIT(V559D) = KIT(V559D) (Homo sapiens, UniProt P10721, V559D)
FLT3(R834Q) = FLT3(R834Q) (Homo sapiens, UniProt P36888, R834Q)
TRKC = biological target: T5, TRKC (Homo sapiens, UniProt Q16288)
T5 construct: gene NTRK3

NEK5 = NEK5 (Homo sapiens, UniProt Q6P3R8)

AAK1, sequence (Q2M2I8 whole entry): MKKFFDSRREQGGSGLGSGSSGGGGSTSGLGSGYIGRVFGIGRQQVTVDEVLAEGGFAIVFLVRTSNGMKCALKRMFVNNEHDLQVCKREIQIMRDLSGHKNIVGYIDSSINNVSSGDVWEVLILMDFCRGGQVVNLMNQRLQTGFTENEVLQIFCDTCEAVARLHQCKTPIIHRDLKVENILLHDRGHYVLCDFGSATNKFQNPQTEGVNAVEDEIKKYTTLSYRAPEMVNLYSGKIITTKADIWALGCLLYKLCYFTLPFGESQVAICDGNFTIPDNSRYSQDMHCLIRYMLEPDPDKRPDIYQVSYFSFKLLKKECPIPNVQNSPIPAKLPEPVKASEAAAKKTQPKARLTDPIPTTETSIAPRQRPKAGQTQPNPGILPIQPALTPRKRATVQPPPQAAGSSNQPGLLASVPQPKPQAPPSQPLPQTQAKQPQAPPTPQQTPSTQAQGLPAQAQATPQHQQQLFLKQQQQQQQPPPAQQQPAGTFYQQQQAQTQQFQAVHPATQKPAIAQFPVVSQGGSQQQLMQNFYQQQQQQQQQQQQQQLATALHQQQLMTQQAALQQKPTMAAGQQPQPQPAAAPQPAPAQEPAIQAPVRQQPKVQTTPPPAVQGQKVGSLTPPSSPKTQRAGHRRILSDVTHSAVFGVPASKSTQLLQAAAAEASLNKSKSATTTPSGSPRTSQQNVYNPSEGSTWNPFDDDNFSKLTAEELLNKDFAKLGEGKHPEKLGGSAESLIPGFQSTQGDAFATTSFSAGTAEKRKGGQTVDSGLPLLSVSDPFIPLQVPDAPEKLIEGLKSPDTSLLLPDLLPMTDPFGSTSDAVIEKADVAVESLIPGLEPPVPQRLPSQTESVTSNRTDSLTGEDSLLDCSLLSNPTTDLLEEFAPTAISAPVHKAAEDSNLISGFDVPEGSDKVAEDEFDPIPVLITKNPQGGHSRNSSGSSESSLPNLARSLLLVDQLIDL
CAMK2G, sequence (Q13555 whole entry): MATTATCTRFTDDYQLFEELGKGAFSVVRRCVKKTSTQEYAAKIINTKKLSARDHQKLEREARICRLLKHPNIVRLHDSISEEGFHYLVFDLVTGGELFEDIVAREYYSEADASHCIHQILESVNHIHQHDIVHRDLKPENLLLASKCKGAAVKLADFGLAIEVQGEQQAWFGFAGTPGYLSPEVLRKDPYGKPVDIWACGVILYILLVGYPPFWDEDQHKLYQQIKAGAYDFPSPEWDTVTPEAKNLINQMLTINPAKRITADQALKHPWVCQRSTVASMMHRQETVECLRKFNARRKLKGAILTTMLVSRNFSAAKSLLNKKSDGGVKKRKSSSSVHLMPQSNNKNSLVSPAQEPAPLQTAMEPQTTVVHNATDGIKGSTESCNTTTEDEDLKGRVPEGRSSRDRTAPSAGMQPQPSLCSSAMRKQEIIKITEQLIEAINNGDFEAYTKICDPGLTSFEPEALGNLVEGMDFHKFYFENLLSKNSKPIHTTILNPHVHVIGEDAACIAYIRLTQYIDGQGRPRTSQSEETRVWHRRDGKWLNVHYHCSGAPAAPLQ
IRAK1, sequence (P51617 whole entry): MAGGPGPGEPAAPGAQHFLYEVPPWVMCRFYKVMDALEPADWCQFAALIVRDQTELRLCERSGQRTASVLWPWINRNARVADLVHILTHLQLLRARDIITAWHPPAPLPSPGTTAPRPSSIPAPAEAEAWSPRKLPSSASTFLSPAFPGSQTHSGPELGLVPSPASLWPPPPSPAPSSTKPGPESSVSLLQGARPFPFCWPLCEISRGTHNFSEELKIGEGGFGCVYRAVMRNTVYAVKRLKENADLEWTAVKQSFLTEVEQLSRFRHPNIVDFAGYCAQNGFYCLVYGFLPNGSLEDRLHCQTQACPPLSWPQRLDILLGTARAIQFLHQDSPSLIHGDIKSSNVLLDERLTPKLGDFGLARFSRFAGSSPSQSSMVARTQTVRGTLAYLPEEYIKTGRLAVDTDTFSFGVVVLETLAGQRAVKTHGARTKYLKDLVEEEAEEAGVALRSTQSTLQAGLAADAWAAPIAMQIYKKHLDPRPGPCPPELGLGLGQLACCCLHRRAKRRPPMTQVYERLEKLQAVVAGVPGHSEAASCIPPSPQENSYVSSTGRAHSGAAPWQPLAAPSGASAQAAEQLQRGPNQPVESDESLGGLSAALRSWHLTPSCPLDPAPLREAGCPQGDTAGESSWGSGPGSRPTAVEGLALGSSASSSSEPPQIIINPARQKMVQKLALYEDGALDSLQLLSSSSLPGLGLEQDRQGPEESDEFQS
T5 sequence (Q16288 whole entry): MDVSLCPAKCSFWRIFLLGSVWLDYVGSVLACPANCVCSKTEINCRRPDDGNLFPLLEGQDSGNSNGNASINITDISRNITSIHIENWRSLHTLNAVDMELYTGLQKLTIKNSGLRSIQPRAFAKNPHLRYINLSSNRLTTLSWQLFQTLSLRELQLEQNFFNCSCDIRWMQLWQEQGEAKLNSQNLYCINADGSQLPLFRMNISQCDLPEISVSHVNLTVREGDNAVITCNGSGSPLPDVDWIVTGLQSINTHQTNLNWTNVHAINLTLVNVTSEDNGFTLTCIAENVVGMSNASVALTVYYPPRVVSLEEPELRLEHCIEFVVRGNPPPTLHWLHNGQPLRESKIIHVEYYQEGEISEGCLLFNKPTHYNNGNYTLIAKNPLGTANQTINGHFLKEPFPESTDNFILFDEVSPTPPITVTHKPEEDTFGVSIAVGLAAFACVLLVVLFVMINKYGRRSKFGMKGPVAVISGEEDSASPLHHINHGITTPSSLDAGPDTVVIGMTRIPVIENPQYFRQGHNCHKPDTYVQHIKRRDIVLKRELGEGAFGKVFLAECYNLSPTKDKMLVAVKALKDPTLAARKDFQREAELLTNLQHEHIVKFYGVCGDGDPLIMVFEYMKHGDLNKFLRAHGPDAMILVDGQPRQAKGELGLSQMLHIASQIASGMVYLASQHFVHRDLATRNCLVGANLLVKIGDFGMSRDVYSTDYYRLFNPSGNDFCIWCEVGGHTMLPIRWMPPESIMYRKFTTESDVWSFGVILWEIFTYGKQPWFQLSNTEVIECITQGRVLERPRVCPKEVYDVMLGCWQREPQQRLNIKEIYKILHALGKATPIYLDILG
BRSK1, sequence (Q8TDC3 whole entry): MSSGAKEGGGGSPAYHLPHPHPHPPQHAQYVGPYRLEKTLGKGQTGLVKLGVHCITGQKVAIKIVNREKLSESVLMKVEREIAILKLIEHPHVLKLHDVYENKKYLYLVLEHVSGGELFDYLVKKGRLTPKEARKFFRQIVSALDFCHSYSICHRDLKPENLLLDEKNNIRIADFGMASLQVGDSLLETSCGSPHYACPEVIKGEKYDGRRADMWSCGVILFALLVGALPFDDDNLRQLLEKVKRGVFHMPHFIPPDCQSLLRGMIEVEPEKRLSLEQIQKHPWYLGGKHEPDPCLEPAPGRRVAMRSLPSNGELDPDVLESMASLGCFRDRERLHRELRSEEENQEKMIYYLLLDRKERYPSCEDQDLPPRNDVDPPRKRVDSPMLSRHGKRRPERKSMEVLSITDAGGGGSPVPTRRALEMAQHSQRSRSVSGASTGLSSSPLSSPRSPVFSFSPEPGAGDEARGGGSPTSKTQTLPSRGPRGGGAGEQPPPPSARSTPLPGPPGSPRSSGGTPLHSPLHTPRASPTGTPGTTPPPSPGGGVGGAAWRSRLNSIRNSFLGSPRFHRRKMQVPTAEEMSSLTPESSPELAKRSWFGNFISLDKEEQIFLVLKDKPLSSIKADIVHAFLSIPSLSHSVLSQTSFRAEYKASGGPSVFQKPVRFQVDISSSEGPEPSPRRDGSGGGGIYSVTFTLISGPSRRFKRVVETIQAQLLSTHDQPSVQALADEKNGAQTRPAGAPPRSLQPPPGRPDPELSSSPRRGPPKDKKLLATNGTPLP
T2 sequence (Q99558 whole entry): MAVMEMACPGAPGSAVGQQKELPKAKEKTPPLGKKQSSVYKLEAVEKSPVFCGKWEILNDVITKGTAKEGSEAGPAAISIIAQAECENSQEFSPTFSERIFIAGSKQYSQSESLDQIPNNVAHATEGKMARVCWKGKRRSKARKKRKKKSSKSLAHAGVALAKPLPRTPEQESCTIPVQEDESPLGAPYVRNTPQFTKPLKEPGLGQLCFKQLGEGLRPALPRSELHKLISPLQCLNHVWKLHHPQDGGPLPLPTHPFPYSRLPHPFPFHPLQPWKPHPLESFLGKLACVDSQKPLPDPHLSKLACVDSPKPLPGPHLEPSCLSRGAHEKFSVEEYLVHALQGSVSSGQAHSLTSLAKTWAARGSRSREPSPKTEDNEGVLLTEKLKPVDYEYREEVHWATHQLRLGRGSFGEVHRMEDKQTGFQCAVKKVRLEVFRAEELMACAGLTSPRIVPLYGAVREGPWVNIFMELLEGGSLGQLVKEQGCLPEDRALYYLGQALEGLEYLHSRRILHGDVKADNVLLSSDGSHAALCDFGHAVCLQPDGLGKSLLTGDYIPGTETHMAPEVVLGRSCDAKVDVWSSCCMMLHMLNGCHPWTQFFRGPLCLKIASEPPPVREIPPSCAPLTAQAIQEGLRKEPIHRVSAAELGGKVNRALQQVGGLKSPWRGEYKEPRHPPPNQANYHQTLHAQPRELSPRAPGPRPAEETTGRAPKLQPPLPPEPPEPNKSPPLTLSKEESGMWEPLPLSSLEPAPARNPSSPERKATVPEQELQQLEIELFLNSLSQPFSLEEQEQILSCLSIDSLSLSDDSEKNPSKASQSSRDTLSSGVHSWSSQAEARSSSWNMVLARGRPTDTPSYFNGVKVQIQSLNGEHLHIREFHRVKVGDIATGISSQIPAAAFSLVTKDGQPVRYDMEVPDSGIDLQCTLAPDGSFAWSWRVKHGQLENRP

SMILES: c1ccc2c(c1)Sc1ccccc1N2CCN1CCOCC1 [J54]
- remaining binding (PIM2): 42%
- remaining binding [1]: 100%
- remaining binding (AAK1): 80%
- remaining binding (MAP3K2): 100%
- remaining binding [2]: 90%
- remaining binding (EPHA8): 100%
- remaining binding (BRSK1): 100%
- remaining binding (NIK): 100%
- remaining binding (JNK3): 93%
- remaining binding (IRAK1): 100%
- remaining binding (SGK): 93%
- remaining binding (PIK3CA(I800L)): 99%
- remaining binding (CAMK2G): 100%
- remaining binding (RIPK4): 100%
- remaining binding (KIT(V559D)): 100%
- remaining binding (FLT3(R834Q)): 100%
- remaining binding (TRKC): 81%
- remaining binding (NEK5): 70%
